Reference: paper PMC6680717, “Design, Synthesis and Biological Evaluation of Novel Coumarin-Based Hydroxamate Derivatives as Histone Deacetylase (Hdac) Inhibitors with Antitumor Activities” (Molecules, 2019)
Values belong to the molecule of their own block, whether it stands above or below them.

Assays:
Hela cells = assay: In vitro anti-proliferation assay (MTT), Hela; format: cell-based; settings: Homo sapiens, 48 h, read-out: Anti-proliferative activity IC50, Hela
Protocol: (§1) The in vitro anti-proliferation assay was operated as previously described. In brief, the human cancer cell lines, A549, HeLa and HepG2, were seeded into 96-well plates at the appropriate cell densities. After incubation for 24 h, the cells were treated with various concentrations of tested compounds for 48 h. Then, the 3–(4,5–dimethyl–2-thiazolyl)–2,5–diphenyl–2–H–tetrazolium bromide (MTT) solution was added and co-incubated for another 4 h. The reactions were stopped by the addition of DMSO solution, and the samples were measured at 490 nm by a microplate spectrophotometer (Thermo Fisher Scientific, Waltham, MA USA). The IC50 was calculated using GraphPad Software. Three independent experiments were carried out in triplicate. (for details see Supplementary Materials)

HDAC2 = HDAC2 (Homo sapiens, UniProt Q92769); assay: HDAC isoform inhibition assay, HDAC2
HDAC11 = target: T1, HDAC11 (Homo sapiens, UniProt Q96DB2); assay: HDAC isoform inhibition assay, HDAC11
T1 sequence (Q96DB2 1-347): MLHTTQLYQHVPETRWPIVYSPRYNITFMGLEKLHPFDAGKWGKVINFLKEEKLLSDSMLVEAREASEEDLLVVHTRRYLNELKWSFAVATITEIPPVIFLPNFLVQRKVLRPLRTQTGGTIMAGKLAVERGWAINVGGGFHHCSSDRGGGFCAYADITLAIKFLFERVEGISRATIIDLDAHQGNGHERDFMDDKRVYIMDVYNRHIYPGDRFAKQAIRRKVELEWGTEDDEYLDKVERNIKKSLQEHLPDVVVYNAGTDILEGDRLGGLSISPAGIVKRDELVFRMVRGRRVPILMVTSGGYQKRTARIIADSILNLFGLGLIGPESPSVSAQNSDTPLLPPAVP

HDAC5 = HDAC5 (Homo sapiens, UniProt Q9UQL6); assay: HDAC isoform inhibition assay, HDAC5
A549 cells [1] = assay: In vitro anti-proliferation assay (MTT), A549; format: cell-based; settings: Homo sapiens, 48 h, read-out: Anti-proliferative activity IC50, A549
Protocol: as §1

[2] = system: acetylated histone H3 and H4; assay: Western blot of acetylated histone levels in A549 cells; settings: A549 cells, 0.2, 0.5 and 1.0 μM, 48 h
Protocol: The levels of acetylated histone H3 and H4 were analyzed by Western blotting assays with β–actin as the negative control. […] Briefly, human cancer cells were lysed in a lysis buffer (50 mM Tris-HCl pH 8.0, 5 mM EDTA, 100 mM NaCl, 0.5% NP-40, 1 mM PMSF), centrifuged for 10 min at 10,000 g, and the insoluble debris were discarded. Cell lysates were further analyzed with SDS-PAGE and western blotting with the indicated antibodies.

A549 cells [3] = assay: Cell cycle analysis (PI, flow cytometry); format: cell-based, human; settings: 24 h, result in words
Protocol: Next, we investigated whether the potent anti-proliferative activity of 10e and 11d resulted from the induction of the cell cycle arrest. […] This was evidenced by the increasing percentages of cells in the G2/M phase, accompanied by a proportionate reduction in other phases of the cell cycle.
The cell cycle analysis was carried out by estimating the DNA contents with flow cytometry. After incubation with the indicated doses of 10e or 11d for 24 h, A549 cells were fixed in 70% ice-cold ethanol, incubated overnight at –20 °C, stained with propidium iodide (PI)/Triton X-100 containing RNaseA solution for 20 min at 37 °C, and then analyzed by FACS.

A549 cells [4] = assay: Cell apoptosis analysis (annexin V FITC/PI, flow cytometry); settings: 72 h
Protocol: The cell apoptosis analysis was measured by annexin V FITC/PI assay using the Vybrant Apoptosis Assay kit (Invitrogen, Carlsbad, CA, USA). […] After staining, 400 μL of 1X annexin-binding buffer was added, mixed gently and kept on ice. The samples were measured using a BD Biosciences FACS Aria flow cytometer.

HDAC8 = target: T2, HDAC8 (Homo sapiens, UniProt Q9BY41); assay: HDAC isoform inhibition assay, HDAC8; settings: for times greater potency than SAHA, HDAC8: ratio of IC50 versus SAHA
T2 sequence (Q9BY41 1-377): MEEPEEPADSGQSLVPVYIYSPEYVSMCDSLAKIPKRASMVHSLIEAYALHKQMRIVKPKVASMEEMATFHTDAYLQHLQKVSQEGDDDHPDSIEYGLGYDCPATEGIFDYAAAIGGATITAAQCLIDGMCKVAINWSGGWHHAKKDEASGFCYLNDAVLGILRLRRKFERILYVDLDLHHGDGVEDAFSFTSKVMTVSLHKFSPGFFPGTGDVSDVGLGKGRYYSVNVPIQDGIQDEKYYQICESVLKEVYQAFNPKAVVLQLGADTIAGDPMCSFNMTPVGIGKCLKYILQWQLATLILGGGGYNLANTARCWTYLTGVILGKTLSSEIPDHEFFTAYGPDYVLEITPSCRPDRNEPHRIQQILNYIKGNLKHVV

HepG2 cells = assay: In vitro anti-proliferation assay (MTT), HepG2; format: cell-based; settings: Homo sapiens, 48 h, read-out: Anti-proliferative activity IC50, HepG2
Protocol: as §1

HDAC4 = HDAC4 (Homo sapiens, UniProt P56524); assay: HDAC isoform inhibition assay, HDAC4
recombinant HDAC1 = target: T3, recombinant HDAC1 (Homo sapiens, UniProt Q13547); assay: HDAC1 inhibitory assay (protease-coupled, Ac-peptide-AMC fluorescence); format: biochemical; settings: for IC50: recombinant HDAC1, n ≥ 3; for times greater potency than SAHA, HDAC1: ratio of IC50 versus SAHA
T3 construct: purchased BPS Biosciences
Protocol: The HDAC1 enzyme activity in vitro was determined by the protease-coupled assay. Different concentrations of compounds were incubated with recombinant HDAC1 (BPS Biosciences, San Diego, CA, USA) at room temperature for 15 min, followed by adding trypsin, as well as Ac-peptide-AMC substrates, to initiate the reaction in a Tris-based assay buffer. […] The IC50 values were calculated by GraphPad Prism software (La Jolla, CA, USA). (for details see Supplementary Materials)

HDAC6 = target: T4, HDAC6 (Homo sapiens, UniProt Q9UBN7); assay: HDAC isoform inhibition assay, HDAC6
T4 sequence (Q9UBN7 1-1215): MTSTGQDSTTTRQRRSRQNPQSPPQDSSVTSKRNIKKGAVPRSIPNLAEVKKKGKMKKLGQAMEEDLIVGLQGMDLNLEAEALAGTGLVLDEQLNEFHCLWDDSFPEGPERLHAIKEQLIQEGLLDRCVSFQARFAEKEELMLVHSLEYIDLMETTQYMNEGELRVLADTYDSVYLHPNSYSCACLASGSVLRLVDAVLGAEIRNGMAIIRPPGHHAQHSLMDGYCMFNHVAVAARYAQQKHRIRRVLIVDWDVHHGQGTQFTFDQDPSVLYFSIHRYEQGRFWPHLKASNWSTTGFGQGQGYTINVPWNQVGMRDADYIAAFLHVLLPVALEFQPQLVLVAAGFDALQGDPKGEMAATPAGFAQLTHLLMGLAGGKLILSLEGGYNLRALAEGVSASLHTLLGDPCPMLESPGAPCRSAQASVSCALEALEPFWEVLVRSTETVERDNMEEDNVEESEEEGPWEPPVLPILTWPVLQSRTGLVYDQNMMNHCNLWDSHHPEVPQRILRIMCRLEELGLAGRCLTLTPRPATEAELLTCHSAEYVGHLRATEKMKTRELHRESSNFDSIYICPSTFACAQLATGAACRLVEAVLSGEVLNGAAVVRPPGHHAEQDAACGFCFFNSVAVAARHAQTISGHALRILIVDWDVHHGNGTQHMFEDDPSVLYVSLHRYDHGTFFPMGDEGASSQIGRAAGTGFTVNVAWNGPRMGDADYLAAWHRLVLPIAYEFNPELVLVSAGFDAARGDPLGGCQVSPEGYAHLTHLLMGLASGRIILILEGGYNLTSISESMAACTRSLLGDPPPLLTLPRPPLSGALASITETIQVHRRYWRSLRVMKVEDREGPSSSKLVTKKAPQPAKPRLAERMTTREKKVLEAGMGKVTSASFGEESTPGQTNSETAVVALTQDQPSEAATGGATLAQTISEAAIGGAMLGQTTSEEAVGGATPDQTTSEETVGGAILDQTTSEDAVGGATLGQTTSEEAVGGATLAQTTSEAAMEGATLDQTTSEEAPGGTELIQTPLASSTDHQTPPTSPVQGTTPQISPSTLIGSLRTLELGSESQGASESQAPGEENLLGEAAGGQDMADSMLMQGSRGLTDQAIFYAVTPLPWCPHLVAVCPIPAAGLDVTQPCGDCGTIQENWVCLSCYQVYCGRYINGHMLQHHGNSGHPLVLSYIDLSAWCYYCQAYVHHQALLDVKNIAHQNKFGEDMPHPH

Sequence of HDAC2 (Q92769 whole entry, canonical isoform): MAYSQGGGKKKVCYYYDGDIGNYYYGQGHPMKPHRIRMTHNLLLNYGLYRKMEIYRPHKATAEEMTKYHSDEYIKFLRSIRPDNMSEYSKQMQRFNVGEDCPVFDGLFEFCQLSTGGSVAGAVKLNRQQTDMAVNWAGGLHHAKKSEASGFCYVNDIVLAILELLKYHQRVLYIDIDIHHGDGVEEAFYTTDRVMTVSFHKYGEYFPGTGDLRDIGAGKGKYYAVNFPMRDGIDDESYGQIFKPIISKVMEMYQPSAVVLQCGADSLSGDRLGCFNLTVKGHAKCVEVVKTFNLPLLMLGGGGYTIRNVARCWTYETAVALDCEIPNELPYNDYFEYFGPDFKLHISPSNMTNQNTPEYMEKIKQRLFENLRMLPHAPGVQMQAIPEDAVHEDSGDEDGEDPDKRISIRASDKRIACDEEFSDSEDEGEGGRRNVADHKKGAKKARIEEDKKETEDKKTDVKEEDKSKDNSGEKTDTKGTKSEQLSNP
T3 sequence (Q13547 whole entry): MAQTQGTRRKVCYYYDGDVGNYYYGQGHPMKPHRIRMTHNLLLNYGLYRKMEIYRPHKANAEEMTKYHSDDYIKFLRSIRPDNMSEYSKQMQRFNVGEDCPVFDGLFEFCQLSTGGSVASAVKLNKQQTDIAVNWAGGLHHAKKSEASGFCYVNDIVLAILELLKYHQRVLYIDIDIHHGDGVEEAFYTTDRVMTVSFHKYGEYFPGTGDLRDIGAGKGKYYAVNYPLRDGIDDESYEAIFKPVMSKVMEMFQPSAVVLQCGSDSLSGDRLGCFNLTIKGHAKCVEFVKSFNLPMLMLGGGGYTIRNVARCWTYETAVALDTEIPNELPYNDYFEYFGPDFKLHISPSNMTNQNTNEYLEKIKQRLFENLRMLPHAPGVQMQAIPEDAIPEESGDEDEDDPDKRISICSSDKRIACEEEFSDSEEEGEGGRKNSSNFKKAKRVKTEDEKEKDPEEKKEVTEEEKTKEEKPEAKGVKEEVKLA
Sequence of HDAC4 (P56524 whole entry, canonical isoform): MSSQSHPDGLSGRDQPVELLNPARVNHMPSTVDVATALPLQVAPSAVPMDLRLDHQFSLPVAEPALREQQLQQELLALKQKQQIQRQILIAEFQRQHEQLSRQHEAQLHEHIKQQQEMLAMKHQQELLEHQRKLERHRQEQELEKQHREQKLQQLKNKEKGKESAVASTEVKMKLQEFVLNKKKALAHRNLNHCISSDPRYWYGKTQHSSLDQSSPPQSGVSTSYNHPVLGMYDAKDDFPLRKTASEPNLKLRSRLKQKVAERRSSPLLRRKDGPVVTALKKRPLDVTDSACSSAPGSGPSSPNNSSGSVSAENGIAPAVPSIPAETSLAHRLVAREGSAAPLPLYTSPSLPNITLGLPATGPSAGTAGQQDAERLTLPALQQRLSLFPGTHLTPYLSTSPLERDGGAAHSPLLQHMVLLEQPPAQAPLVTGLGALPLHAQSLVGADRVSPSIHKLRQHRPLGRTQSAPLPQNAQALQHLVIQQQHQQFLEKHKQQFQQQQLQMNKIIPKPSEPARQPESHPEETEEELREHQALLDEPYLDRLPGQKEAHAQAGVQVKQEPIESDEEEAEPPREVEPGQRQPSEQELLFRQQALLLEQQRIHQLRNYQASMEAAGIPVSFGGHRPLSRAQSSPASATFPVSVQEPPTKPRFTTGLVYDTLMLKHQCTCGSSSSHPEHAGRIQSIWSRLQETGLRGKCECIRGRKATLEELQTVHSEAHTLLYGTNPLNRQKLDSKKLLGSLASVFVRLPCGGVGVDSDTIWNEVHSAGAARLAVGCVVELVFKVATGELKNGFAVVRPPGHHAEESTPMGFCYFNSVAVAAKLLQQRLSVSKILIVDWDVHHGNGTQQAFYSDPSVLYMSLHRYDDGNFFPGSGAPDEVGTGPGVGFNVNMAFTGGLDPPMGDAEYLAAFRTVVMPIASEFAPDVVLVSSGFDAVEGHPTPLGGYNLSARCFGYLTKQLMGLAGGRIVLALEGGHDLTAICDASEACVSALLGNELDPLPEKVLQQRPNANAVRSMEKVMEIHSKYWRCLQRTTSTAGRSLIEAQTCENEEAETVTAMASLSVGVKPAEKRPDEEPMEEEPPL
Sequence of HDAC5 (Q9UQL6 whole entry, canonical isoform): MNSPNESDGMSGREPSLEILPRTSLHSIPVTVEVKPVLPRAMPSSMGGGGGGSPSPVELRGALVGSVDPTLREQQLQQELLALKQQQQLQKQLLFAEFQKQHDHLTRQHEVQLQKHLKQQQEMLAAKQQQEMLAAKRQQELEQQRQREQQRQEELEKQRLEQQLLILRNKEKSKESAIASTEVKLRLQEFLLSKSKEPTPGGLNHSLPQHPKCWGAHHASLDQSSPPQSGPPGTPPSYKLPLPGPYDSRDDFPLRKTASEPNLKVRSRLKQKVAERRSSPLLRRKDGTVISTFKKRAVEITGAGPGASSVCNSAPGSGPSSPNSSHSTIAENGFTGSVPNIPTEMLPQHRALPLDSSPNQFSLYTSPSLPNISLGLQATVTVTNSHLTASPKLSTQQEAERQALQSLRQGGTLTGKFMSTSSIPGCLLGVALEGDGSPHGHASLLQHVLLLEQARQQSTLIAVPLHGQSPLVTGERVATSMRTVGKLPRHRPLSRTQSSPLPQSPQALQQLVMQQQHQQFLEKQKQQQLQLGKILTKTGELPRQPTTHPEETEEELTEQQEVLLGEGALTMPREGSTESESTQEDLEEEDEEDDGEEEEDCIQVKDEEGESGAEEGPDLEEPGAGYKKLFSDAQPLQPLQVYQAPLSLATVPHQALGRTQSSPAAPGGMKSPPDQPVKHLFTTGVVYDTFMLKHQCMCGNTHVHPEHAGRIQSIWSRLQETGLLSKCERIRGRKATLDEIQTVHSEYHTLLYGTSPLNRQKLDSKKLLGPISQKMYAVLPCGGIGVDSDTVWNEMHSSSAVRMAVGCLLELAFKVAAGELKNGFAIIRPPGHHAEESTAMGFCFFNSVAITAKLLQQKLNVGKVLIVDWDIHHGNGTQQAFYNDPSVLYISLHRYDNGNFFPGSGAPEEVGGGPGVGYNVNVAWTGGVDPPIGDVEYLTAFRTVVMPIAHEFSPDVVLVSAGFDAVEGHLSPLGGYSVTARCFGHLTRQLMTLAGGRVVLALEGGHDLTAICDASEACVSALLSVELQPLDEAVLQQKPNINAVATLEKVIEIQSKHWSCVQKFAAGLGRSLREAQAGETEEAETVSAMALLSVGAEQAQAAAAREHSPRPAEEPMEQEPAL

SMILES: COc1ccc2c(NCCCCCCCC(=O)NO)cc(=O)oc2c1 [Compound 10e, N–hydroxy–8–((7–methoxy–2–oxo–2H–chromen–4–yl)amino)octanamide]
- IC50 (Hela cells): 1310 ± 860 nM
- IC50 (HDAC2): 0.68 ± 0.05 nM
- times greater potency than SAHA, HDAC2 (HDAC2; ratio of IC50 versus SAHA): ~27 times
- IC50 (HDAC11): > 1000 nM
- IC50 (HDAC5): > 1000 nM
- IC50 (A549 cells [1]): 1960 ± 740 nM
- expression of acetylated histone H3 and H4 [2]: increase the expression of acetylated histone H3 and H4 in a dose-dependent manner
- cell cycle arrest in A549 cells (A549 cells [3]): significant induction of the G2/M phase cell cycle arrest in a concentration-dependent manner
- apoptosis induced in A549 cancer cells (A549 cells [4]; 1.25 μM): 51.9%
- apoptosis induced in A549 cancer cells (A549 cells [4]; 2.5 μM): 84.4%
- apoptosis induced in A549 cancer cells (A549 cells [4]; 5 μM): 90.3%
- IC50 (HDAC8): 16.9 ± 0.01 nM
- times greater potency than SAHA, HDAC8 (HDAC8): ~12 times
- IC50 (HepG2 cells): > 10000 nM
- IC50 (HDAC4): > 1000 nM
- IC50 (recombinant HDAC1): 0.24 ± 0.01 nM
- IC50 (HDAC6): 5.4 ± 1 nM

SMILES: COc1ccc2c(NCCCCCCC(=O)NO)cc(=O)oc2c1 [Compound 10d, N–hydroxy–7–((7–methoxy–2–oxo–2H–chromen–4–yl)amino)heptanamide]
- IC50 (recombinant HDAC1): 2.51 ± 0.12 nM

SMILES: COc1ccc2c(OCCCCCCCC(=O)NO)cc(=O)oc2c1 [Compound 11d, N–hydroxy–8–((7–methoxy–2–oxo–2H–chromen–4–yl)oxy)octanamide]
- IC50 (Hela cells): 2620 ± 1530 nM
- IC50 (HDAC2): < 0.32 nM
- IC50 (HDAC11): > 1000 nM
- IC50 (HDAC5): > 1000 nM
- IC50 (A549 cells [1]): 560 ± 280 nM
- expression of acetylated histone H3 and H4 [2]: increase the expression of acetylated histone H3 and H4 in a dose-dependent manner
- cell cycle arrest in A549 cells (A549 cells [3]): significant induction of the G2/M phase cell cycle arrest in a concentration-dependent manner
- apoptosis induced in A549 cancer cells (A549 cells [4]; 1.25 μM): 81.7%
- apoptosis induced in A549 cancer cells (A549 cells [4]; 2.5 μM): 87.2%
- apoptosis induced in A549 cancer cells (A549 cells [4]; 5 μM): 91.4%
- IC50 (HDAC8): 1.85 ± 0.14 nM
- times greater potency than SAHA, HDAC8 (HDAC8): ~107 times
- IC50 (HepG2 cells): 7710 ± 2070 nM
- IC50 (HDAC4): > 1000 nM
- IC50 (HDAC6): 5.67 ± 1.42 nM

SMILES: O=C(CCCCCNc1cc(=O)oc2ccccc12)NO [Compound 10b, N–hydroxy–6–((2–oxo–2H–chromen–4–yl)amino)hexanamide]
- IC50 (recombinant HDAC1): 9.11 ± 0.2 nM

SMILES: O=C(CCCCCCC(=O)Nc1ccccc1)NO [SAHA, vorinostat, reference compound]
- apoptosis induced in A549 cancer cells (A549 cells [4]; 1.25 μM): 27.6%
- apoptosis induced in A549 cancer cells (A549 cells [4]; 2.5 μM): 40.9%
- apoptosis induced in A549 cancer cells (A549 cells [4]; 5 μM): 61.4%

SMILES: O=C(CCNc1cc(=O)oc2ccccc12)NO [Compound 10a, N–hydroxy–3–((2–oxo–2H–chromen–4–yl)amino)propanamide]
- IC50 (recombinant HDAC1): > 100 nM

SMILES: COc1ccc2c(NCCCCCC(=O)NO)cc(=O)oc2c1 [Compound 10c, N–hydroxy–6–((7–methoxy–2–oxo–2H–chromen–4–yl)amino)hexanamide]
- IC50 (recombinant HDAC1): 6.43 ± 0.16 nM

Now from value to molecule:

- times greater potency than SAHA, HDAC1 (recombinant HDAC1): approximately three
- IC50 (recombinant HDAC1): 6.88 ± 0.85 nM
SMILES: Cc1cc(=O)oc2cc(OCCCCCCCC(=O)NO)ccc12 [Compound 12b, N–hydroxy–8–((4–methyl–2–oxo–2H–chromen–7–yl)oxy)octanamide]

- times greater potency than SAHA, HDAC1 (recombinant HDAC1): approximately three
- IC50 (recombinant HDAC1): 8.72 ± 1.03 nM
SMILES: O=C(CCCCCCCOc1ccc2ccc(=O)oc2c1)NO [Compound 12a, N–hydroxy–8–((2–oxo–2H–chromen–7–yl)oxy)octanamide]

- IC50 (recombinant HDAC1): 19.4 ± 2.21 nM
SMILES: COc1ccc2c(OCCCCCC(=O)NO)cc(=O)oc2c1 [Compound 11b, N–hydroxy–6–((7–methoxy–2–oxo–2H–chromen–4–yl)oxy)hexanamide]

- IC50 (recombinant HDAC1): 7.33 ± 1.01 nM
SMILES: COc1ccc2c(OCCCCCCCCC(=O)NO)cc(=O)oc2c1 [Compound 11e, N–hydroxy–9–((7–methoxy–2–oxo–2H–chromen–4–yl)oxy)nonanamide]

- IC50 (recombinant HDAC1): > 100 nM
SMILES: COc1ccc2c(OCCCCC(=O)NO)cc(=O)oc2c1 [Compound 11a, N–hydroxy–5–((7–methoxy–2–oxo–2H–chromen–4–yl)oxy)pentanamide]

- IC50 (recombinant HDAC1): 5.61 ± 0.56 nM
SMILES: COc1ccc2c(OCCCCCCC(=O)NO)cc(=O)oc2c1 [Compound 11c, N–hydroxy–7–((7–methoxy–2–oxo–2H–chromen–4–yl)oxy)heptanamide]
